The subject of experiment [1] is Peripheral blood lymphocytes. Put plainly: Ceramide in anti-Fas antibody stimulated peripheral blood lymphocytes (DAG kinase assay). Format: cell-based. The settings on record: for Ceramide: 30 min at 37° C., then anti-Fas antibody 30 min, Control 20, Control + anti-Fas antibody 81.6; for Effect on synthesis of ceramide in vitro: anti-Fas stimulated lymphocytes. The source says: (§1) Ceramide levels can be directly measured by isolating peripheral blood lymphocytes from the patient. Thereafter the cells are centrifuged to eliminate the supernatant, and the lipids are removed from the cell pellet. The organic phase containing the ceramide can be assayed using the “DAG kinase assay” for phosphorylating the ceramide which is then evidenced by autoradiography [Cifone, M. G. et al., J. Exp. Med., 180(4): 1547-52].
Peripheral blood lymphocytes were isolated according to the classical methodologies. The cells were incubated with L-carnitine (200 mcg/ml) or with isovaleryl L-carnitine for 30 min at 37° C., and afterwards with an anti-Fas monoclonal antibody for another 30 min. The cells were then centrifuged, eleminating the supernatant, and the cell pellet was delipidized. The organic phase (containing the ceramide) was assayed in the “DAG kinase assay” for phosphorylating ceramide which subsequently was evidenced by autoradiography.
It is known that the cells suitably stimulated (i.e. with Fas-L, inter-leukin-1, etc.) generate ceramide. An anti-Fas antibody was employed to increase the production of ceramide from a basal value (20 picomoles per 10^6 cells) to 81.6 picomoles per 10^6 cells.

For another experiment, the system named is Ceramide in the muscles. Put plainly: Muscle ceramide in patients with symptomatic neuro-myopathy (chronic fatigue syndrome). Format: in vivo, human. The conditions noted are these: 3 g per day oral, two months. Here is the method: Two patients affected by symptomatic neuro-myopathy (chronic fatigue syndrome) were treated with 3 g per clay of L-carnitine by oral route through two months. Ceramide was measured in the muscles before and after the administration.

In experiment [2] the test system is lymphocyte-associated ceramide. Put plainly: Lymphocyte-associated ceramide in hyperthyroidism patients treated with metimazole. Format: in vivo, human. The settings on record: 8 g per day oral, 4 weeks. From the text:
Ceramide levels can be directly measured by isolating peripheral blood lymphocytes from the patient. Thereafter the cells are centrifuged to eliminate the supernatant, and the lipids are removed from the cell pellet. The organic phase containing the ceramide can be assayed using the “DAG kinase assay” for phosphorylating the ceramide which is then evidenced by autoradiography [Cifone, M. G. et al., J. Exp. Med., 180(4): 1547-52]. Four patients affected by hyperthyroidism who had been treated with metimazole (15 mg by oral route, daily) for more than eight months, were treated for 4 weeks with 8 g per day L-carnitine by oral route. The lymphocyte-associated ceramide was determinded before and after the treatment.

Experiment [3] has as its system lymphocyte-associated ceramide. Put plainly: Lymphocyte-associated ceramide in patients with hepato-splenomegaly due to viral hepatitis of C type. The class given is in vivo, human. The settings on record: 4 g bolus intravenous. The source says:
Ceramide levels can be directly measured by isolating peripheral blood lymphocytes from the patient. Thereafter the cells are centrifuged to eliminate the supernatant, and the lipids are removed from the cell pellet. The organic phase containing the ceramide can be assayed using the “DAG kinase assay” for phosphorylating the ceramide which is then evidenced by autoradiography [Cifone, M. G. et al., J. Exp. Med., 180(4): 1547-52]. Three patients with hepato-splenomegaly due to viral hepatitis of C type were treated with 4 g of L-carnitine bolus by intravenous route. The lymphocyte-associated ceramide was determined before and after 3 and 48 hours following the infusion.

The test system of experiment [4] is peripheral blood lymphocyte-associated ceramide. Put plainly: Peripheral blood lymphocyte-associated ceramide in patients with protein catabolism and lipidic depletion from tubercular infection. Format: in vivo, human. The conditions noted are these: 8 g per day parenteral, two weeks.
Description: as §1
Four patients affected by protein catabolism and lipidic depletion as a consequence of tubercular infection were treated for two weeks with 8 g per day L-carnitine by parenteral route.
The peripheral blood lymphocyte-associated ceramide was determined before and after the treatment.

Each structure is given as a SMILES string.

`C[N+](C)(C)C[C@H](O)CC(=O)[O-]` [L-carnitine]: in experiment [1] (100 mcg/ml), the Ceramide was found to be 7.3 picomoles per 10^6 cells. Besides, the “Effect on synthesis of ceramide in vitro” value in experiment [1] is “inhibit the synthesis of ceramide in vitro”. In addition, the Ceramide post-treatment in the experiment with Ceramide in the muscles (Patient 1, pre-treatment 76) is on record as 28 picomoles per mg of proteins; in the experiment with Ceramide in the muscles (Patient 2, pre-treatment 142) it was 46 picomoles per mg of proteins; in experiment [2] (Patient 1, pre-treatment 73), 26 picomoles/10^6 cells; in experiment [2] (Patient 2, pre-treatment 45) it was 27 picomoles/10^6 cells; in experiment [2] (Patient 3, pre-treatment 111) it was 36 picomoles/10^6 cells; in experiment [2] (Patient 4, pre-treatment 69), 18 picomoles/10^6 cells. Besides, the Ceramide post-treatment is on record as 59 picomoles/10^6 cells in experiment [4] (Patient 1, pre-treatment 127); 77 picomoles/10^6 cells in experiment [4] (Patient 2, pre-treatment 265); 152 picomoles/10^6 cells in experiment [4] (Patient 3, pre-treatment 301); 54 picomoles/10^6 cells in experiment [4] (Patient 4, pre-treatment 78). In addition, the “Duration of the effect on ceramide levels” value in experiment [3] is given as “remains at least for two days”. Also, the “Effect of bolus on ceramide levels” value in experiment [3] (after 3 hours from the infusion) is “inhibited the increase of ceramide levels already after 3 hours”. For the same compound, the “Ceramide After 3 hrs” value in experiment [3] (Patient 1, pre-treatment 65) is recorded as 12 picomoles/10^6 cells; in experiment [3] (Patient 2, pre-treatment 77), 32 picomoles/10^6 cells; in experiment [3] (Patient 3, pre-treatment 79), 24 picomoles/10^6 cells. Further, the “Ceramide After 48 hrs” value in experiment [3] (Patient 1, pre-treatment 65) was 31 picomoles/10^6 cells; in experiment [3] (Patient 2, pre-treatment 77), 21 picomoles/10^6 cells; in experiment [3] (Patient 3, pre-treatment 79), 23 picomoles/10^6 cells.

With `CC(C)CC(=O)O[C@H](CC(=O)[O-])C[N+](C)(C)C` [isovaleryl L-carnitine], the Ceramide in experiment [1] (50 mcg/ml) came to 8.6 picomoles per 10^6 cells; in experiment [1] (100 mcg/ml), 7.3 picomoles per 10^6 cells. In addition, the “Effect on synthesis of ceramide in vitro” value in experiment [1] is listed as “inhibit the synthesis of ceramide in vitro”.

These data come from patent US6350782B1, “Use of basic amino acids derivatives for lowering ceramide levels” (Sigma-Tau Industrie Farmaceutiche Riunite S.p.A., priority 1995, dated 2002).
